# Source: patent US20090075948A1, “COMPOSITIONS AND METHODS FOR REGULATING CELLULAR PROTECTION” (California Institute of Technology, priority 2007, published 2009)
# Key:
# Assay type in all cases: cell-based, Drosophila
# Hsp70 [1] = experiment: Hsp70 transcription, primer-extension analysis of isolated RNA; conditions: for stimulation of Hsp70 transcription: without cellular stress
# Description: FIG. 15. Time course for Hsp70 transcription induction by 3 mM salicylic acid. Cells were treated with 3 mM salicylic acid and RNA was isolated at the indicated times.
# Control cells (lanes 1 and 2) show activation of Hsp70 transcription as a result of a ten-minute heat shock. […] Lanes 3 and 4 contain RNA from KD cells with RNAi against Hsc4p. […] When Hsc4p levels are reduced, HSF is able to bind DNA and activate transcription without heat shock.
# Hsp70 [2] = experiment: Induction of Hsp70 protein synthesis in cultured cells; conditions: for optimal concentration for induction of Hsp70 protein synthesis: treated 60 minutes, no heat shock; for stimulation of Hsp70 protein synthesis: without cellular stress
# Description: FIG. 14. Induction of HSF DNA binding and hsp70 protein synthesis by ibuprofen and salicylic acid. The concentrations of ibuprofen and salicylic acid are shown as mM. Both DNA binding and Hsp70 protein synthesis follow the same optimal concentrations. The cells were treated for 60 minutes with the indicated drug and whole cell extracts prepared for analysis. […] The goal here is to activate HSF to produce adequate levels of Hsp70 that can provide neuroprotective functions to the human brain. To begin these studies, two common non-steroidal anti-inflammatory drugs (NSAIDs), ibuprofen and salicylic acid, were tested. These molecules have been previously shown to stimulate HSF DNA binding in mammalian and Drosophila cells. The findings presented here differ from those previously published. As reported here, both salicylic acid and ibuprofen can stimulate HSF DNA binding, Hsp70 transcription and Hsp70 protein synthesis. […] It is clear that both DNA binding and Hsp70 protein synthesis have identical optimums.
# HSF = HSF DNA binding activity, gel mobility shift assay (EMSA) with whole cell extracts and labeled HSE; conditions: for optimal concentration for induction of HSF DNA binding: treated 60 minutes, no heat shock; for stimulation of HSF DNA binding: without cellular stress
# Description: FIG. 14. Induction of HSF DNA binding and hsp70 protein synthesis by ibuprofen and salicylic acid. The concentrations of ibuprofen and salicylic acid are shown as mM. Both DNA binding and Hsp70 protein synthesis follow the same optimal concentrations. The cells were treated for 60 minutes with the indicated drug and whole cell extracts prepared for analysis.
# The effect of the KDs on DNA binding was first examined using the gel mobility shift assay. Briefly cells were treated with RNAi or transfected with the indicated DNA constructs and harvested four days later. Whole cell extracts were prepared and DNA binding carried out with a labeled heat shock element (HSE) double stranded oligonucleotide. Lanes 1 and 2 represent control cells, non-shocked and heat shocked, respectively. […] Lanes 3 and 4 contain extract derived from the Hsc3p KD cells.
# [3] = Drosophila cultured cells, 60 minutes
Compound,stimulation of Hsp70 transcription (Hsp70 [1]),optimal concentration for induction of Hsp70 protein synthesis (Hsp70 [2]; Drosophila cultured cells),stimulation of Hsp70 protein synthesis (Hsp70 [2]),optimal concentration for induction of HSF DNA binding (HSF; Drosophila cultured cells),stimulation of HSF DNA binding (HSF),time course of Hsp70 transcription induction (Hsp70 [1]; 3 mM salicylic acid),low concentration that still functions for Hsp70 protein synthesis (Hsp70 [2]; [3]) [mM],low concentration that still functions for HSF DNA binding (HSF; [3]) [mM]
CC(C)Cc1ccc(C(C)C(=O)O)cc1 (stereo not shown) [ibuprofen],can stimulate,3 to 10 mM,can stimulate,3 to 10 mM,can stimulate,,,
O=C(O)c1ccccc1O [salicylic acid],can stimulate,quite broad,can stimulate,quite broad,can stimulate,induced rapidly,1,1
